Assay results from publication PMC11170969, “Photoaffinity probe‐based antimalarial target identification of artemisinin in the intraerythrocytic developmental cycle of Plasmodium falciparum” (iMeta, 2024).

Key:
PfGAPDH = target: T1, PfGAPDH (Plasmodium falciparum, UniProt Q8IKK7); experiment: enzyme activity inhibition; format: biochemical; details: binding also shown by DARTS; activity assay conditions not stated in main text; covalent Glu59 adduct suggested by MS in a separate test with hemin and ascorbate
T1 construct: gene PF3D7_1462800; recombinant, pET-28a(+), E. coli BL21(DE3), Ni-NTA
T1 sequence (Q8IKK7 entry or part of it): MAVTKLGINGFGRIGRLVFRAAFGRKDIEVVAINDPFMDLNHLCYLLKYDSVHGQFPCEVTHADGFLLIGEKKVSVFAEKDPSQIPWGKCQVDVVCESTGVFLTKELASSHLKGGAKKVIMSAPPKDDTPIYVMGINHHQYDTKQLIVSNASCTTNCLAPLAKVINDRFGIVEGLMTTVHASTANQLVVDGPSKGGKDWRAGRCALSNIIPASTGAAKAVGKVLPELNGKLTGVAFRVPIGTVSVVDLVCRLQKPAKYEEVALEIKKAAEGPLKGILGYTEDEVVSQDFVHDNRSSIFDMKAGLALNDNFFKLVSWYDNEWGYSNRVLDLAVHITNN

PfLDH = target: T2, PfLDH (Plasmodium falciparum, UniProt Q76NM3); experiment: enzyme activity inhibition; format: biochemical; details: binding also shown by DARTS; activity assay conditions not stated in main text
T2 construct: gene PF3D7_1324900; recombinant, pET-28a(+), E. coli BL21(DE3), Ni-NTA
T2 sequence (Q76NM3 1-316): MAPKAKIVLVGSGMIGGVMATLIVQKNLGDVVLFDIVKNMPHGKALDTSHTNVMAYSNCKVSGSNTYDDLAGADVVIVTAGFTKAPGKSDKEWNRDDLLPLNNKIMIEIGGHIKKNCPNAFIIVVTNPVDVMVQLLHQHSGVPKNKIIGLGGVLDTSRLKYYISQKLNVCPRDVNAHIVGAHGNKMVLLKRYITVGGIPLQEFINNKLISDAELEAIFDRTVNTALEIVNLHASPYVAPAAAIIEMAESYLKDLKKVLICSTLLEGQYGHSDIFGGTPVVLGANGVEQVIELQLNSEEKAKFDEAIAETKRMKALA

PfTIM = target: T3, PfTIM (Plasmodium falciparum, UniProt Q7KQM0); experiment: enzyme activity inhibition; format: biochemical; details: binding also shown by DARTS; activity assay conditions not stated in main text
T3 construct: gene TPI; recombinant, pET-28a(+), E. coli BL21(DE3), Ni-NTA
T3 sequence (Q7KQM0 whole entry): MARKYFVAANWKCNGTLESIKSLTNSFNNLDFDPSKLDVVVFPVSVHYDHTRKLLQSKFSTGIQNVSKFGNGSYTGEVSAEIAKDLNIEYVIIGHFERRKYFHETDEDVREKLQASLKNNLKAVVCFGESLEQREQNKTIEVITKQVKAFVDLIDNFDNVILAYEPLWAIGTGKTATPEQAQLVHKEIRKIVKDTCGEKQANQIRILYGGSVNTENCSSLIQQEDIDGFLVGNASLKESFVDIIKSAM

PfOAT = target: T4, PfOAT (Plasmodium falciparum, UniProt Q6LFH8); experiment: OAT activity assay kit, absorbance at […] nm; format: biochemical; details: without heme activation (also tested with heme activation); 1 h preincubation; methods name the inhibitor ART, 0-80 μM
T4 construct: gene OAT; recombinant, pET-28a(+), E. coli BL21(DE3), Ni-NTA
T4 sequence (Q6LFH8 1-414): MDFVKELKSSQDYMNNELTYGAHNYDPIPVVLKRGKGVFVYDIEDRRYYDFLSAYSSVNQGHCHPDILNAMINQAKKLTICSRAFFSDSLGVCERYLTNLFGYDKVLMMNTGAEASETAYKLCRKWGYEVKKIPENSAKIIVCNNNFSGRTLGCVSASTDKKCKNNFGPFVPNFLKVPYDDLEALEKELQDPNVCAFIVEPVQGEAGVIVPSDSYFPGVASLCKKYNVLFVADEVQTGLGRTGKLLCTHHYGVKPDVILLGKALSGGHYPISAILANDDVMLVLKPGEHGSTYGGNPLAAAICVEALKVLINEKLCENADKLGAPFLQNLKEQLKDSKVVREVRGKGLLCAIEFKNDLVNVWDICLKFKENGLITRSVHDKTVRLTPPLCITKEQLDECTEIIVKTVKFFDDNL

PfEGF1‐α = target: T5, PfEGF1‐α (Plasmodium falciparum, UniProt Q8I0P6); experiment: DARTS; competition with APP photolabelling; format: binding; details: DARTS: 5 μM protein, room temperature, 2 h, pronase; competition: 10 μM ATS
T5 construct: gene PF3D7_1357000; recombinant, pET-28a(+), E. coli BL21(DE3), Ni-NTA
T5 sequence (Q8I0P6 1-443): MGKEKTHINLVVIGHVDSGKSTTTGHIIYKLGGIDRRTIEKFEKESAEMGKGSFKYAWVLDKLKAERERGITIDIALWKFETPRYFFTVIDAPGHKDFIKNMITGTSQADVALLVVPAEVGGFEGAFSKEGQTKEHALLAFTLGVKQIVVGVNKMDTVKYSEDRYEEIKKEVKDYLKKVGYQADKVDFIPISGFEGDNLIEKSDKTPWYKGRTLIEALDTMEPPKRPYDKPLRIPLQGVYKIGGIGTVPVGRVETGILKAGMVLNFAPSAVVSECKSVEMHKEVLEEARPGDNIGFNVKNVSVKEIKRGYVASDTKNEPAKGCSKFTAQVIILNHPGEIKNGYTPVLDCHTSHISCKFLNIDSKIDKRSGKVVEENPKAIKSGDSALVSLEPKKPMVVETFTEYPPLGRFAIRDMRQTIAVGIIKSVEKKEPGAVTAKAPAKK

`C[C@H]1[C@H](OC(=O)CCC(=O)O)O[C@@H]2O[C@@]3(C)CC[C@H]4[C@H](C)CC[C@@H]1[C@@]24OO3` [ATS, artesunate] was tested, and the half-maximal inhibitory concentration (PfGAPDH) was “the half‐maximal inhibitory concentrations were at low micromolar concentrations”, the half-maximal inhibitory concentration (PfLDH) was “the half‐maximal inhibitory concentrations were at low micromolar concentrations” and the half-maximal inhibitory concentration (PfTIM) was “the half‐maximal inhibitory concentrations were at low micromolar concentrations”. For the same compound, the “OAT activity assay kit, absorbance at 340 nm” value (PfOAT) was “ATS can significantly inhibit its enzyme activity in both heme‐activated and nonactivated states” and the “DARTS; competition with APP photolabelling” value (PfEGF1‐α) was “the PfEGF1‐α proteins became more resistant to proteolysis after incubation with ATS”.
